Molecular target: T1, Ribosyldihydronicotinamide dehydrogenase [quinone] (Homo sapiens, UniProt P16083)
T1 sequence (P16083 whole entry): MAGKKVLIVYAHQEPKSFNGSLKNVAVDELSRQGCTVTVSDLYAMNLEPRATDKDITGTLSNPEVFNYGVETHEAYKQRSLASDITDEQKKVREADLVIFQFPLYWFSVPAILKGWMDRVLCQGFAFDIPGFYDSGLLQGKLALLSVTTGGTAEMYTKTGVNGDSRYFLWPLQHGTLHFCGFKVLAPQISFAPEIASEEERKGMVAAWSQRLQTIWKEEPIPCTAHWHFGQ
Experiment: Inhibition of human quinone reductase 2 expressed in Escherichia coli BL21(DE3) using N-methyldihydronicotinamide as co-substrate

Row | SMILES | IC50 [µM]
1 | COc1cc(/C=C/c2ccc(F)cc2)cc(OC)c1 | 4.6
2 | COc1ccc(/C=C/c2ccc(O)c(O)c2)cc1 | 9.3
3 | COc1ccc(/C=C/c2ccc3ccccc3c2)cc1OC | 5.5
4 | COc1ccc(/C(C)=C/c2ccc(OC)c(OC)c2)cc1 | 6.7
5 | COc1cc(/C=C(\C)c2ccc(OC)c(OC)c2)cc(OC)c1 | 9.9
6 | N#C/C(=C\c1cc(O)cc(O)c1)c1ccc(O)cc1 | 5.9
7 | OC/C(=C\c1cc(O)cc(O)c1)c1ccc(O)cc1 | 5.1
8 | COc1ccc(/C(C=O)=C/c2cc(OC)cc(OC)c2)cc1 | 24.2
9 | NC(=O)/C(=C\c1cc(O)cc(O)c1)c1ccc(O)cc1 | 9.3
10 | O=C/C(=C/c1cc(O)cc(O)c1)c1ccc(O)cc1 | 25.5
11 | COc1ccc(/C(=C\c2cc(OC)cc(OC)c2)CO)cc1 | 27.5
12 | O=C(Nc1ccc(O)cc1)c1cc(O)cc(O)c1 | 27.6
13 | O=C(Nc1cc(O)cc(O)c1)c1ccc(O)cc1 | 16.8
14 | Oc1ccc(/C=C/c2ccc(O)c(O)c2)cc1 | 6
15 | Oc1ccc(/C=C/c2cccc(F)c2)cc1O | 20.8
16 | CC/C(=C\c1ccc(N(C)C)cc1)c1cc(O)cc(O)c1 | 10.9
17 | CC/C(=C\c1cc(OC)cc(OC)c1)c1ccc(OC)c(OC)c1 | 16.3

Row | SMILES | IC50 [µM]
18 | COc1cc(/C=C/c2ccc3ccccc3c2)cc(OC)c1 | 0.73
19 | COc1cccc(/C=C/c2ccc(OC)c(OC)c2)c1 | 6.8
20 | COc1ccc(/C=C/c2ccc(N(C)C)cc2)cc1OC | 13
21 | C/C(=C\c1cc(O)cc(O)c1)c1ccc(O)cc1 | 39
22 | Oc1ccc(/C=C/c2ccc(C(F)(F)F)cc2)cc1O | < 14.2
23 | COc1ccc(/C=C(/c2cc(OC)cc(OC)c2)C(F)(F)F)cc1 | 13
24 | COc1ccc(/C(C)=C/c2cc(O)cc(O)c2)cc1 | 12
25 | COc1ccc(/C(C)=C/c2cc(OC)cc(OC)c2)cc1 | 20.1
26 | COc1ccc(/C(C)=C/c2cc(O)cc(O)c2)cc1OC | 33.7
27 | COc1ccc(/C=C(/c2cccc(C(F)(F)F)c2)C(F)(F)F)cc1OC | 0.18
28 | C/C(=C\c1ccc(C(F)(F)F)cc1)c1ccc(O)cc1 | 2.8
29 | C/C(=C\c1ccc(O)cc1)c1cc(O)cc(O)c1 | 4.8
30 | COc1ccc(/C(C#N)=C/c2cc(OC)cc(OC)c2)cc1 | 31.6
31 | COc1cc(/C=C/c2ccc(OC)c(OC)c2)cc(OC)c1 [(E)-3,4,3',5'-TETRAMETHOXYSTILBENE] | 37.1
32 | COc1cc(/C=C/c2ccc(O)cc2)cc(OC)c1 [PTEROSTILBENE] | 5.1
33 | COc1ccc(/C=C/c2cc(OC)cc(OC)c2)cc1 [TRISMETHOXYRESVERATROL] | 14.6
